The source made the active and inactive calls.
Tests used:
[1] = molecular target: Cyclin-dependent kinase 2 (Homo sapiens, UniProt P24941)
[2] = molecular target: T1, Serine/threonine-protein kinase ICK (Homo sapiens, UniProt Q9UPZ9)
T1 sequence (Q9UPZ9 whole entry): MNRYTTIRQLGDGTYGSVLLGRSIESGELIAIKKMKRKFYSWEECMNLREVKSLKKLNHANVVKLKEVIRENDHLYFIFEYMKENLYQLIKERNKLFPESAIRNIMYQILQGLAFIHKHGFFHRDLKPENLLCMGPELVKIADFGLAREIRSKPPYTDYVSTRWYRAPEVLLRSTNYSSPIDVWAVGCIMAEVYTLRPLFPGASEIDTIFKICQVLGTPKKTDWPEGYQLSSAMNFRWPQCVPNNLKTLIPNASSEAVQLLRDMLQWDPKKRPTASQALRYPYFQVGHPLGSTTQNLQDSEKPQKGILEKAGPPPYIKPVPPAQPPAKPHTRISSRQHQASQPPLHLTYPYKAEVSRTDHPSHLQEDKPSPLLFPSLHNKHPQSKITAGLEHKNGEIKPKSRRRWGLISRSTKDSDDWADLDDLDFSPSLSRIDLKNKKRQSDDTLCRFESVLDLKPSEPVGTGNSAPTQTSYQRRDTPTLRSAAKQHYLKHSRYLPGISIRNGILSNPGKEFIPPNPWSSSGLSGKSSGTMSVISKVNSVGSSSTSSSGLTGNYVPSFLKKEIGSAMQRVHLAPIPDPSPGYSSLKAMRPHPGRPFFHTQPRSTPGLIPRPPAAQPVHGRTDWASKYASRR

[3] = molecular target: MAP kinase-activated protein kinase 2 (Homo sapiens, UniProt P49137)
Chain of MAP kinase-activated protein kinase 2 (P49137 whole entry): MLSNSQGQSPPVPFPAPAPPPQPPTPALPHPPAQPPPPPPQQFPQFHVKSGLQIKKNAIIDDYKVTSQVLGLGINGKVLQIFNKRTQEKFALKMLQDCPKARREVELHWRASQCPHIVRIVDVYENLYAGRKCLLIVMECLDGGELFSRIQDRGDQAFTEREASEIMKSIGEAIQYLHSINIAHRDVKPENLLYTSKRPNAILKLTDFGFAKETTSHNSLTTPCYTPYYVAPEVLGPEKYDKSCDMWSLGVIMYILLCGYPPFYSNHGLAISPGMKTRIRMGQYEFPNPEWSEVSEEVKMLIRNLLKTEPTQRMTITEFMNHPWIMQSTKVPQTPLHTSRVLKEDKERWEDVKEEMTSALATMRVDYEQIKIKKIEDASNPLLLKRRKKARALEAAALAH

[4] = molecular target: Insulin-like growth factor 1 receptor (Homo sapiens, UniProt P08069)
Chain of Insulin-like growth factor 1 receptor (P08069 31-736 limits assumed): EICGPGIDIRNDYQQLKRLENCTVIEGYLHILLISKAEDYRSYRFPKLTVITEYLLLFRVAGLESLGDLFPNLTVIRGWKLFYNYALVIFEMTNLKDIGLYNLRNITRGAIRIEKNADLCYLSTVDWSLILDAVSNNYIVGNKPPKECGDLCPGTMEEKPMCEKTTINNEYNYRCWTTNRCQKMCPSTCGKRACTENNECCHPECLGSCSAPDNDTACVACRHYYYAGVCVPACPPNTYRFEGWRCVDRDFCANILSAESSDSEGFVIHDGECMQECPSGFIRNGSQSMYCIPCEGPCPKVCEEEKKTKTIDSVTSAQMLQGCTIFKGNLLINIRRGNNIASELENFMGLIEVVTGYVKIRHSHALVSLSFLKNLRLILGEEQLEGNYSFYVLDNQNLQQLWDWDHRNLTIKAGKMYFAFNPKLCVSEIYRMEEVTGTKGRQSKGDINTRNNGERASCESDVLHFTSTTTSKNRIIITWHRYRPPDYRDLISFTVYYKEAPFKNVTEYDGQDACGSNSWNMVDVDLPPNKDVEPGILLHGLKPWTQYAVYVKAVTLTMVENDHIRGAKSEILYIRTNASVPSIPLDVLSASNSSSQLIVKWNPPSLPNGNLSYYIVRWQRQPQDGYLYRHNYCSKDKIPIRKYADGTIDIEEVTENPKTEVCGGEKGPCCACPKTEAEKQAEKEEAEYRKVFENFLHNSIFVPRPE
Chain of Insulin-like growth factor 1 receptor (P08069 741-1367 limits assumed): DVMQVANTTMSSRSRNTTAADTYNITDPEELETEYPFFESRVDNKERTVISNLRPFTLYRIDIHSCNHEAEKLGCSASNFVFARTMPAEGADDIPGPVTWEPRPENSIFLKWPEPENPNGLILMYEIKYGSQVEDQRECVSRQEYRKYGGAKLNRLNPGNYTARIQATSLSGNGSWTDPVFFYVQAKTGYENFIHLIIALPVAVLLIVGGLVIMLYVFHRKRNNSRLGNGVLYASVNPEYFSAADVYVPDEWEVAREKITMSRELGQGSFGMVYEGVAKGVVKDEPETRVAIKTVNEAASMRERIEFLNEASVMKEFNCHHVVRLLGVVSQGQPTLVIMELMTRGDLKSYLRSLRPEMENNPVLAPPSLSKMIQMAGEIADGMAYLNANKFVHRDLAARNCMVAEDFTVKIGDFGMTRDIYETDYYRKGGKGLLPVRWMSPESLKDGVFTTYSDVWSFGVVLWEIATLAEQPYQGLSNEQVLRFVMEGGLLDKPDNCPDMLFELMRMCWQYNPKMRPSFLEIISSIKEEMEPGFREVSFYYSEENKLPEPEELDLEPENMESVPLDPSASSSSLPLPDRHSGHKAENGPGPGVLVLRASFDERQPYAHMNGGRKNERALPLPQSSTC

[5] = molecular target: Serine/threonine-protein kinase MRCK alpha (Homo sapiens, UniProt Q5VT25)
[6] = molecular target: T2, Glycogen phosphorylase, brain form (Homo sapiens, UniProt P11216)
T2 sequence (P11216 whole entry): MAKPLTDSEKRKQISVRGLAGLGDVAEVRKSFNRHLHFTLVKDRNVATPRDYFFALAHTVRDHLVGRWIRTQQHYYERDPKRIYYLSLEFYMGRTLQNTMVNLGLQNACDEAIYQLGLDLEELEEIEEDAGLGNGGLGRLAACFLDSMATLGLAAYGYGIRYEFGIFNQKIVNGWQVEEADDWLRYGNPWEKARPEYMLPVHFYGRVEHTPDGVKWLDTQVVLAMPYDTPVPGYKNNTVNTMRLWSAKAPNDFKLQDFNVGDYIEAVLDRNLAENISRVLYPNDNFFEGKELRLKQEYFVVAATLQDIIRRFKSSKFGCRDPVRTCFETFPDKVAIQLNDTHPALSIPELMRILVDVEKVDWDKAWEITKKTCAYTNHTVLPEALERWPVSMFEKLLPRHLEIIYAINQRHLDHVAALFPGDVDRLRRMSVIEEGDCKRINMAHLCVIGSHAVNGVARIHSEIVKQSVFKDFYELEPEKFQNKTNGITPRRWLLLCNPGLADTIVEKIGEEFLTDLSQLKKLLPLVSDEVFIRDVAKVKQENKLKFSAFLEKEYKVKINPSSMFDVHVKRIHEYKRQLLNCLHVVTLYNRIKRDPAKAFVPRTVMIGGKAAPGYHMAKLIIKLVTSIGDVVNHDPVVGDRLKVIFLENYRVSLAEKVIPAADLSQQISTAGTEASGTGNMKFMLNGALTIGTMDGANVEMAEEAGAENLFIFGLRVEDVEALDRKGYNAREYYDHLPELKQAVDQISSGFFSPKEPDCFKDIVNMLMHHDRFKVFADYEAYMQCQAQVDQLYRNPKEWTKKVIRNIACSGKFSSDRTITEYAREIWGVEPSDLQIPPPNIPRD

[7] = molecular target: Mitogen-activated protein kinase 3 (Homo sapiens, UniProt P27361)
Chain of Mitogen-activated protein kinase 3 (P27361 whole entry): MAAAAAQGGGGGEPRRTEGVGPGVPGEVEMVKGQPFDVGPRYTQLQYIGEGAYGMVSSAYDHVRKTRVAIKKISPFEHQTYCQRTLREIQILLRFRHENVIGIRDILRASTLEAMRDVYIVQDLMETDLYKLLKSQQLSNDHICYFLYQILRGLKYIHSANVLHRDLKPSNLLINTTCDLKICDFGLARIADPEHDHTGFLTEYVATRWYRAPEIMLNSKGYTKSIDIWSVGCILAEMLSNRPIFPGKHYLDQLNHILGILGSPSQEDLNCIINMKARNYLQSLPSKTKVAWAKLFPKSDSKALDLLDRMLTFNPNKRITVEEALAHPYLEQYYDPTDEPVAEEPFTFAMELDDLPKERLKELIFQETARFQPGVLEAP

[8] = molecular target: Membrane-associated progesterone receptor component 1 (Homo sapiens, UniProt O00264)
Chain of Membrane-associated progesterone receptor component 1 (O00264 whole entry): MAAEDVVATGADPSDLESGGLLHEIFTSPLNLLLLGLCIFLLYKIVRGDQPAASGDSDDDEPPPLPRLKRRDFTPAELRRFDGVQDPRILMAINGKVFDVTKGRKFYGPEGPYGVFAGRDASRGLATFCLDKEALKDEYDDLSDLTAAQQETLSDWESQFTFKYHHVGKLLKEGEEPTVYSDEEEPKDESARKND

[9] = molecular target: Mitotic checkpoint serine/threonine-protein kinase BUB1 (Homo sapiens, UniProt O43683)
Chain of Mitotic checkpoint serine/threonine-protein kinase BUB1 (O43683 whole entry): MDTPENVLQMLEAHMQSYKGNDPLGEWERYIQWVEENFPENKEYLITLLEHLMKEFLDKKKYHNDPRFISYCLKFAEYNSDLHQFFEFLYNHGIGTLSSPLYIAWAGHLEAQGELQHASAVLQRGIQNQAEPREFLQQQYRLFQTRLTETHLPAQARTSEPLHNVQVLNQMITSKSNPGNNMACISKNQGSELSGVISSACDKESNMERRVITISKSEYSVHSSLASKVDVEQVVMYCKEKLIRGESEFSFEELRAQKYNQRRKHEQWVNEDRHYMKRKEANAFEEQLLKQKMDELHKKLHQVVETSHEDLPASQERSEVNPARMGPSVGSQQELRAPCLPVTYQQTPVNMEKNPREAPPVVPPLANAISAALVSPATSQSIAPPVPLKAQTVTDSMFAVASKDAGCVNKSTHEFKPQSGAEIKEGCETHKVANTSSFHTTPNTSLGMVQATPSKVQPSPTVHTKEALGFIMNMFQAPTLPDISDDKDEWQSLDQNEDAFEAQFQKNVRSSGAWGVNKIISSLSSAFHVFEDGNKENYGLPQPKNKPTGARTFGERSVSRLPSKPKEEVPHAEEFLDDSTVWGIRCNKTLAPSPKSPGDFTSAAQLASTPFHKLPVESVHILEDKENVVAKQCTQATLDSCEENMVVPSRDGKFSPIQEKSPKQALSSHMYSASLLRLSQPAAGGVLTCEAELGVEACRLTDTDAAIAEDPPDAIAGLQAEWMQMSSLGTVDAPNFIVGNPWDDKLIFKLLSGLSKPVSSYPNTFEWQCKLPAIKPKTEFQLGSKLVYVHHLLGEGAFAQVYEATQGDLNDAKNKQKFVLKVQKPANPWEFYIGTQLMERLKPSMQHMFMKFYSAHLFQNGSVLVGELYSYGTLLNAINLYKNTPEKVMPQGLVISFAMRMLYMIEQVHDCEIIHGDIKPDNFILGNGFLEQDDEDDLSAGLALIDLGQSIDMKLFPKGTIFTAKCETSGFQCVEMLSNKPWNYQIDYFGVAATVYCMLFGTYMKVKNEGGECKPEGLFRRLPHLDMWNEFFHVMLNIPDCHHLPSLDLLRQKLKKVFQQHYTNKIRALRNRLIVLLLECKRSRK

[10] = molecular target: Tyrosine-protein kinase Lck (Homo sapiens, UniProt P06239)
Chain of Tyrosine-protein kinase Lck (P06239 whole entry): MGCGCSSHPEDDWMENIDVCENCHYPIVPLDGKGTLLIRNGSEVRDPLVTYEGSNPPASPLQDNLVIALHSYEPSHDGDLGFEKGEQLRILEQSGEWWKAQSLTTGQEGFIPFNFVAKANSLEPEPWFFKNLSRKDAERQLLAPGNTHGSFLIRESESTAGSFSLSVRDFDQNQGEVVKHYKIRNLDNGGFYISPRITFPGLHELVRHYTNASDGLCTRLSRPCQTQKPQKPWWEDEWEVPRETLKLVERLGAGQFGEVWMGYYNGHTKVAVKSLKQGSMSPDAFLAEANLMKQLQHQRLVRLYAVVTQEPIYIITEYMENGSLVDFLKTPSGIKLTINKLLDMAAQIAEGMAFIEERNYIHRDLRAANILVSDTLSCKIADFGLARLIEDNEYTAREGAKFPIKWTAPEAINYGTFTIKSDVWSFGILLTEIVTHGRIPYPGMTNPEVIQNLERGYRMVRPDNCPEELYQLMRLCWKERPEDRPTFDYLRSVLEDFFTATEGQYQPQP

[11] = molecular target: Protein kinase C delta type (Homo sapiens, UniProt Q05655)
Chain of Protein kinase C delta type (Q05655 whole entry): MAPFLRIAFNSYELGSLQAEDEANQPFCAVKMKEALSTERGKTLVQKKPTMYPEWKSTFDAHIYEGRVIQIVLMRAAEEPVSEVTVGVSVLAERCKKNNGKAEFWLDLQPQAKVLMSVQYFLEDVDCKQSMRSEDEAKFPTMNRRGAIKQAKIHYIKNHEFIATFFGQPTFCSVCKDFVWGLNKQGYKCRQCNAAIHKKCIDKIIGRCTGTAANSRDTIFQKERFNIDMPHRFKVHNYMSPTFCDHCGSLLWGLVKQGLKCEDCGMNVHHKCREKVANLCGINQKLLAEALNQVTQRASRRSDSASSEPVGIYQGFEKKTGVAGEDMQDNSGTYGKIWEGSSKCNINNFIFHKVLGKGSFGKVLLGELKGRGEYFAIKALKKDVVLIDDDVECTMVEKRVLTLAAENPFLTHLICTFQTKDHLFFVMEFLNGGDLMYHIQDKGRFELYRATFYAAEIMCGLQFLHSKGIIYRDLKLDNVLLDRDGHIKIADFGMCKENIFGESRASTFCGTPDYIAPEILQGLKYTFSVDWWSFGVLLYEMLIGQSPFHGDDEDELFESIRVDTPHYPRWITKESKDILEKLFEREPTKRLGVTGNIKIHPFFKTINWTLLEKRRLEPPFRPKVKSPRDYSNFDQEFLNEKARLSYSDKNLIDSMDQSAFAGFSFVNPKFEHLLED

[12] = molecular target: T3, Ras-related protein Rab-27A (Homo sapiens, UniProt P51159)
T3 sequence (P51159 whole entry): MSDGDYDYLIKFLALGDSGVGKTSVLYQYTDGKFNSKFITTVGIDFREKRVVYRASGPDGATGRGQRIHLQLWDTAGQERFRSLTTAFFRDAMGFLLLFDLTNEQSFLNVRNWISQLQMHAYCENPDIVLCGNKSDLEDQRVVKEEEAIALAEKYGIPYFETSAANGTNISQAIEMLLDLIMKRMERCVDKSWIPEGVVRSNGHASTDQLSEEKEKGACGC
Also: in the data inactive means no Kd found up to 30 µM.

Structure (SMILES): Cn1cc(-c2cnc3ccc4ccc(CS(=O)(=O)NCc5ccccn5)cc4c(=O)c3c2)cn1 [MK-8033]
- Kd [1]: > 30 µM (inactive)
- Kd [2]: > 30 µM (inactive)
- Kd [3]: > 30 µM (inactive)
- Kd [4]: > 30 µM (inactive)
- Kd [5]: > 30 µM (inactive)
- Kd [6]: > 30 µM (inactive)
- Kd [7]: > 30 µM (inactive)
- Kd [8]: > 30 µM (inactive)
- Kd [9]: > 30 µM (inactive)
- Kd [10]: > 30 µM (inactive)
- Kd [11]: > 30 µM (inactive)
- Kd [12]: > 30 µM (inactive)

Structure (SMILES): Cc1cc(Nc2ncnc3ccc(NC4=NC(C)(C)CO4)cc23)ccc1Oc1ccn2ncnc2c1 [TUCATINIB]
- Kd [1]: > 30 µM (inactive)
- Kd [2]: > 30 µM (inactive)
- Kd [3]: > 30 µM (inactive)
- Kd [4]: > 30 µM (inactive)
- Kd [5]: > 30 µM (inactive)
- Kd [6]: > 30 µM (inactive)
- Kd [7]: > 30 µM (inactive)
- Kd [8]: > 30 µM (inactive)
- Kd [9]: > 30 µM (inactive)
- Kd [10]: > 30 µM (inactive)
- Kd [11]: > 30 µM (inactive)
- Kd [12]: > 30 µM (inactive)

Structure (SMILES): O=C(Cc1ccc(-c2ccc(OCCN3CCOCC3)cc2)cn1)NCc1ccccc1 [TIRBANIBULIN]
- Kd [1]: > 30 µM (inactive)
- Kd [2]: > 30 µM (inactive)
- Kd [3]: > 30 µM (inactive)
- Kd [4]: > 30 µM (inactive)
- Kd [5]: > 30 µM (inactive)
- Kd [6]: > 30 µM (inactive)
- Kd [7]: > 30 µM (inactive)
- Kd [8]: > 30 µM (inactive)
- Kd [9]: > 30 µM (inactive)
- Kd [10]: > 30 µM (inactive)
- Kd [11]: > 30 µM (inactive)
- Kd [12]: > 30 µM (inactive)

Structure (SMILES): C#Cc1cccc(Nc2ncnc3cc(OC)c(OCCCCCCC(=O)NO)cc23)c1 [CUDC-101]
- Kd [1]: > 30 µM (inactive)
- Kd [2]: > 30 µM (inactive)
- Kd [3]: > 30 µM (inactive)
- Kd [4]: > 30 µM (inactive)
- Kd [5]: > 30 µM (inactive)
- Kd [6]: > 30 µM (inactive)
- Kd [7]: > 30 µM (inactive)
- Kd [8]: > 30 µM (inactive)
- Kd [9]: 0.961 µM (active)
- Kd [10]: > 30 µM (inactive)
- Kd [11]: > 30 µM (inactive)
- Kd [12]: > 30 µM (inactive)

Structure (SMILES): NC1(c2ccc(-c3nc4ccn5c(=O)[nH]nc5c4cc3-c3ccccc3)cc2)CCC1 [MK-2206]
- Kd [1]: > 30 µM (inactive)
- Kd [2]: > 30 µM (inactive)
- Kd [3]: > 30 µM (inactive)
- Kd [4]: > 30 µM (inactive)
- Kd [5]: > 30 µM (inactive)
- Kd [6]: > 30 µM (inactive)
- Kd [7]: > 30 µM (inactive)
- Kd [8]: > 30 µM (inactive)
- Kd [9]: > 30 µM (inactive)
- Kd [10]: > 30 µM (inactive)
- Kd [11]: > 30 µM (inactive)
- Kd [12]: > 30 µM (inactive)

Structure (SMILES): Cc1nc2cc(-c3nn(C(C)C)c4ncnc(N)c34)ccc2o1
- Kd [1]: > 30 µM (inactive)
- Kd [2]: > 30 µM (inactive)
- Kd [3]: > 30 µM (inactive)
- Kd [4]: > 30 µM (inactive)
- Kd [5]: > 30 µM (inactive)
- Kd [6]: > 30 µM (inactive)
- Kd [7]: > 30 µM (inactive)
- Kd [8]: > 30 µM (inactive)
- Kd [9]: > 30 µM (inactive)
- Kd [10]: > 30 µM (inactive)
- Kd [11]: > 30 µM (inactive)
- Kd [12]: > 30 µM (inactive)

Structure (SMILES): O=C1NC(=O)[C@@H](c2cn3c4c(cccc24)CCC3)[C@@H]1c1c[nH]c2ccccc12 [TIVANTINIB]
- Kd [1]: > 30 µM (inactive)
- Kd [2]: > 30 µM (inactive)
- Kd [3]: > 30 µM (inactive)
- Kd [4]: > 30 µM (inactive)
- Kd [5]: > 30 µM (inactive)
- Kd [6]: > 30 µM (inactive)
- Kd [7]: > 30 µM (inactive)
- Kd [8]: > 30 µM (inactive)
- Kd [9]: > 30 µM (inactive)
- Kd [10]: > 30 µM (inactive)
- Kd [11]: > 30 µM (inactive)
- Kd [12]: > 30 µM (inactive)

Structure (SMILES): CO[C@H]1C[C@@H]2CC[C@@H](C)[C@@](O)(O2)C(=O)C(=O)N2CCCC[C@H]2C(=O)O[C@H]([C@H](C)C[C@@H]2CC[C@@H](OP(C)(C)=O)[C@H](OC)C2)CC(=O)[C@H](C)/C=C(\C)[C@@H](O)[C@@H](OC)C(=O)[C@H](C)C[C@H](C)/C=C/C=C/C=C/1C [RIDAFOROLIMUS]
- Kd [1]: > 30 µM (inactive)
- Kd [2]: > 30 µM (inactive)
- Kd [3]: > 30 µM (inactive)
- Kd [4]: > 30 µM (inactive)
- Kd [5]: > 30 µM (inactive)
- Kd [6]: > 30 µM (inactive)
- Kd [7]: > 30 µM (inactive)
- Kd [8]: > 30 µM (inactive)
- Kd [9]: > 30 µM (inactive)
- Kd [10]: > 30 µM (inactive)
- Kd [11]: > 30 µM (inactive)
- Kd [12]: > 30 µM (inactive)

— ChEMBL document CHEMBL3991601, “The target landscape of clinical kinase drugs” (Science, 2017)
